In patent publication US20250221988A1 (Cullgen (Shanghai), Inc., priority 2022, published 2025) one finds IC50 data, which are given here for 18 molecules.

The subject of assay [1] is MV4;11 cells. As to the kind of experiment: Cell viability assay (CellTiter-Glo) in MV4;11 cells. The class given is cell-based. To be noted: read-out: MV4; for pIC50: compound alone, 11 IC50. The method, boiled down: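 After three days' exposure to 3-fold serial compound dilutions (8 or 12 points), viability of cells seeded at 5000/well is read by CellTiter-Glo. Runs were done alone or combined with gilteritinib at 10 nM (MV4;11) or 20 nM (MOLM-13); IC50 from nonlinear regression.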
A general note: Cellular ATP, detected with luciferase, serves as a proxy for viable cell number.

For assay [2], the system named is MOLM-13 cells. As to the kind of experiment: Cell viability assay (CellTiter-Glo) in MOLM-13 cells. To be noted: for pIC50: 72 h, compound alone, read-out: MOLM-13 IC50. It counts as cell-based.
Where [3] appears, read: Homo sapiens, MV4-11, 72 h, MV4;11 cells, three days.
[4] abbreviates: MV4;11 cells, with 10 nM gilteritinib, three days, 11 IC50 (nM) + 10 nM Gil.
Setting [5] is: Homo sapiens, MOLM-13 cells, three days.
The mark [6] stands for this setting: MOLM-13 cells, with gilteritinib, three days, read-out: MOLM-13 IC50 (nM) + 10 nM Gil.

pIC50: −log10 of the molar value. Read-outs that look alike come from different tables or passages of the source. Some results are limits rather than exact numbers.

For the molecule `Cc1nc(-c2cn([C@H]3C[C@H](CNc4ccc5c(c4)CN(C4CCC(=O)NC4=O)C5=O)C3)nc2C(F)F)ccc1F` (stereo partly drawn) [GS-677, 3-(5-(((Trans-3-(3-(difluoromethyl)-4-(5-fluoro-6-methylpyridin-2-yl)-1H-pyrazol-1-yl)cyclobutyl)methyl)amino)-1-oxoisoindolin-2-yl)piperidine-2,6-dione], the pIC50 in assay [1] (setting [3]) and in assay [2] (setting [5]) was more than 8.00 throughout. Besides, the IC50 in assay [1] (setting [4]) and in assay [2] (setting [6]) was less than 10 nM each time.

Consider `Cc1nc(-c2cn(C[C@H]3C[C@H](Nc4ccc5c(c4)C(=O)N(C4CCC(=O)NC4=O)C5=O)C3)nc2C2CC2)ccc1F` (stereo partly drawn) [GS-711, 5-((Trans-3-((3-cyclopropyl-4-(5-fluoro-6-methylpyridin-2-yl)-1H-pyrazol-1-yl)methyl)cyclobutyl)amino)-2-(2,6-dioxopiperidin-3-yl)isoindoline-1,3-dione], for which the pIC50 in assay [1] (setting [3]) and in assay [2] (setting [5]) was less than 6.00 each time.

With `O=C1CCC(N2C(=O)c3ccc(NC[C@H]4C[C@H](n5cc(-c6cc7nn([C@H]8CC[C@H](O)CC8)cc7cn6)c(C6CC6)n5)C4)cc3C2=O)C(=O)N1` (stereo partly drawn) [GS-789, 5-(((Trans-3-(3-cyclopropyl-4-(2-(trans-4-hydroxycyclohexyl)-2H-pyrazolo[4,3-c]pyridin-6-yl)-1H-pyrazol-1-yl)cyclobutyl)methyl)amino)-2-(2,6-dioxopiperidin-3-yl)isoindoline-1,3-dione], the pIC50 in assay [1] (setting [3]) and in assay [2] (setting [5]) was more than 8.00 each time. The IC50 in assay [1] (setting [4]) and in assay [2] (setting [6]) was less than 10 nM throughout.

Turning to `Cn1ccc2ccc(-c3cn([C@H]4C[C@H](CNc5ccc6c(c5)C(=O)N(C5CCC(=O)NC5=O)C6=O)C4)nc3C3CC3)nc21` (stereo partly drawn) [GS-722, 5-(((trans-3-(3-cyclopropyl-4-(1-methyl-1H-pyrrolo[2,3-b]pyridin-6-yl)-1H-pyrazol-1-yl)cyclobutyl)methyl)amino)-2-(2,6-dioxopiperidin-3-yl)isoindoline-1,3-dione], the pIC50 in assay [1] (setting [3]) and in assay [2] (setting [5]) was 7.00 to 8.00 throughout. For the same molecule, the IC50 in assay [1] (setting [4]) and in assay [2] (setting [6]) was less than 10 nM throughout.

Consider `O=C1CCC(N2C(=O)c3ccc(NC[C@H]4C[C@H](n5cc(-c6cnc7ccc(N8CC(O)C8)cc7n6)c(C6CC6)n5)C4)cc3C2=O)C(=O)N1` (stereo partly drawn) [GS-644, 5-(((Trans-3-(3-cyclopropyl-4-(7-(3-hydroxyazetidin-1-yl)quinoxalin-2-yl)-1H-pyrazol-1-yl)cyclobutyl)methyl)amino)-2-(2,6-dioxopiperidin-3-yl)isoindoline-1,3-dione], for which the pIC50 in assay [1] (setting [3]) and in assay [2] (setting [5]) was 7.00 to 8.00 each time. The IC50 in assay [1] (setting [4]) and in assay [2] (setting [6]) was less than 10 nM in each case.

As for `N[C@H]1C[C@@H](n2cc3cnc(-c4cn([C@H]5C[C@H](CNc6ccc7c(c6)C(=O)N(C6CCC(=O)NC6=O)C7=O)C5)nc4C4CC4)cc3n2)C1` (stereo partly drawn) [GS-785, 5-(((Trans-3-(4-(2-(cis-3-aminocyclobutyl)-2H-pyrazolo[4,3-c]pyridin-6-yl)-3-cyclopropyl-1H-pyrazol-1-yl)cyclobutyl)methyl)amino)-2-(2,6-dioxopiperidin-3-yl)isoindoline-1,3-dione], the values for the pIC50 in assay [1] (setting [3]) and in assay [2] (setting [5]) were more than 8.00 and 7.00 to 8.00, respectively. In addition, the IC50 in assay [1] (setting [4]) and in assay [2] (setting [6]) was less than 10 nM throughout.

As for `O=C1CCC(N2C(=O)c3ccc(NC[C@H]4C[C@H](n5nc(C6CC6)c6cc(N7CCNCC7)ccc65)C4)cc3C2=O)C(=O)N1` (stereo partly drawn) [GS-740, 5-(((Trans-3-(3-cyclopropyl-5-(piperazin-1-yl)-1H-indazol-1-yl)cyclobutyl)methyl)amino)-2-(2,6-dioxopiperidin-3-yl)isoindoline-1,3-dione], the pIC50 in assay [1] (setting [3]) and in assay [2] (setting [5]) was less than 6.00 in each case. The IC50 in assay [2] (setting [6]) is 100 to 1000 nM.

Take `O=C1CCC(N2C(=O)c3ccc(NCCCn4cc(-c5cnc6ccccc6n5)c(C5CC5)n4)cc3C2=O)C(=O)N1` (stereo not drawn) [GS-642, 5-((3-(3-Cyclopropyl-4-(quinoxalin-2-yl)-1H-pyrazol-1-yl)propyl)amino)-2-(2,6-dioxopiperidin-3-yl)isoindoline-1,3-dione]: the pIC50 in assay [1] (setting [3]) and in assay [2] (setting [5]) was 7.00 to 8.00 each time. The IC50 in assay [1] (setting [4]) and in assay [2] (setting [6]) was less than 10 nM throughout.

`Cn1cc2c(-c3cn([C@H]4C[C@H](CNc5ccc6c(c5)C(=O)N(C5CCC(=O)NC5=O)C6=O)C4)nc3C3CC3)ncc(F)c2n1` (stereo partly drawn) [GS-790, 5-(((Trans-3-(3-cyclopropyl-4-(7-fluoro-2-methyl-2H-pyrazolo[4,3-c]pyridin-4-yl)-1H-pyrazol-1-yl)cyclobutyl)methyl)amino)-2-(2,6-dioxopiperidin-3-yl)isoindoline-1,3-dione]: the pIC50 in assay [1] (setting [3]) was more than 8.00; in assay [2] (setting [5]) it was 7.00 to 8.00. For the same molecule, the IC50 in assay [1] (setting [4]) and in assay [2] (setting [6]) was less than 10 nM in each case.

With `O=C1CCC(N2C(=O)c3ccc(NC[C@H]4C[C@H](n5cc(-c6ccc7[nH]ncc7n6)c(C6CC6)n5)C4)cc3C2=O)C(=O)N1` (stereo partly drawn) [GS-684, 5-(((Trans-3-(3-cyclopropyl-4-(1H-pyrazolo[4,3-b]pyridin-5-yl)-1H-pyrazol-1-yl)cyclobutyl)methyl)amino)-2-(2,6-dioxopiperidin-3-yl)isoindoline-1,3-dione], the pIC50 was 7.00 to 8.00 in assay [1] (setting [3]) and 6.00 to 7.00 in assay [2] (setting [5]). The IC50 in assay [1] (setting [4]) and in assay [2] (setting [6]) was 10 to 100 nM throughout.

In the case of `Cc1ccnc2c1c(C1CC1)nn2[C@H]1C[C@H](CNc2ccc3c(c2)C(=O)N(C2CCC(=O)NC2=O)C3=O)C1` (stereo partly drawn) [GS-679, 5-(((Trans-3-(3-cyclopropyl-4-methyl-1H-pyrazolo[3,4-b]pyridin-1-yl)cyclobutyl)methyl)amino)-2-(2,6-dioxopiperidin-3-yl)isoindoline-1,3-dione], the pIC50 in assay [1] (setting [3]) and in assay [2] (setting [5]) was less than 6.00 in each case. In addition, the IC50 in assay [1] (setting [4]) and in assay [2] (setting [6]) was 100 to 1000 nM throughout.

Regarding `Cc1cccc(-c2nn([C@H]3C[C@H](CNc4ccc5c(c4)C(=O)N(C4CCC(=O)NC4=O)C5=O)C3)cc2C2CC2)n1` (stereo partly drawn) [GS-713, 5-(((Trans-3-(4-cyclopropyl-3-(6-methylpyridin-2-yl)-1H-pyrazol-1-yl)cyclobutyl)methyl)amino)-2-(2,6-dioxopiperidin-3-yl)isoindoline-1,3-dione], the pIC50 in assay [1] (setting [3]) was 7.00 to 8.00; in assay [2] (setting [5]), 6.00 to 7.00. Moreover, the IC50 in assay [1] (setting [4]) and in assay [2] (setting [6]) was 10 to 100 nM each time.

`O=C1CCC(N2C(=O)c3ccc(NCCC[C@H]4C[C@H](n5cc(-c6nccc7c6NCCC7)c(C6CC6)n5)C4)cc3C2=O)C(=O)N1` (stereo partly drawn) [GS-685, 5-((3-(Trans-3-(3-cyclopropyl-4-(1,2,3,4-tetrahydro-1,7-naphthyridin-8-yl)-1H-pyrazol-1-yl)cyclobutyl)propyl)amino)-2-(2,6-dioxopiperidin-3-yl)isoindoline-1,3-dione]: the pIC50 in assay [1] (setting [3]) and in assay [2] (setting [5]) was less than 6.00 each time. Also, the IC50 in assay [1] (setting [4]) and in assay [2] (setting [6]) was 100 to 1000 nM throughout.

On to `O=C1CCC(N2C(=O)c3ccc(NC[C@H]4C[C@H](n5cc(-c6cccc(N7CCCC7)n6)c(C6CC6)n5)C4)cc3C2=O)C(=O)N1` (relative stereo) [GS-748, 5-(((Trans-3-(3-cyclopropyl-4-(6-(pyrrolidin-1-yl)pyridin-2-yl)-1H-pyrazol-1-yl)cyclobutyl)methyl)amino)-2-(2,6-dioxopiperidin-3-yl)isoindoline-1,3-dione], for which the pIC50 in assay [1] (setting [3]) and in assay [2] (setting [5]) was 7.00 to 8.00 in each case. Besides, the IC50 in assay [1] (setting [4]) and in assay [2] (setting [6]) was less than 10 nM in each case.

For the molecule `O=C1CCC(N2C(=O)c3ccc(NC[C@H]4C[C@H](n5cc(-c6ccc7c(n6)CCC7O)c(C6CC6)n5)C4)cc3C2=O)C(=O)N1` (stereo partly drawn) [GS-705, 5-(((Trans-3-(3-cyclopropyl-4-(5-hydroxy-6,7-dihydro-5H-cyclopenta[b]pyridin-2-yl)-1H-pyrazol-1-yl)cyclobutyl)methyl)amino)-2-(2,6-dioxopiperidin-3-yl)isoindoline-1,3-dione], the pIC50 in assay [1] (setting [3]) is less than 6.00; in assay [2] (setting [5]) it was 6.00 to 7.00. Also, the IC50 in assay [1] (setting [4]) and in assay [2] (setting [6]) was 100 to 1000 nM throughout.

With `CC(C)n1ncc2ccc(-c3cn([C@H]4C[C@H](CNc5ccc6c(c5)C(=O)N(C5CCC(=O)NC5=O)C6=O)C4)nc3C3CC3)nc21` (stereo partly drawn) [GS-730, 5-(((Trans-3-(3-cyclopropyl-4-(1-isopropyl-1H-pyrazolo[3,4-b]pyridin-6-yl)-1H-pyrazol-1-yl)cyclobutyl)methyl)amino)-2-(2,6-dioxopiperidin-3-yl)isoindoline-1,3-dione], the IC50 in assay [1] (Homo sapiens, MV4-11, 72 h, 11 IC50 (nM)) lay within 10 to 100 nM; in assay [1] (11 IC50 (nM) + 10 nM Gil, MV4;11 cells, with 10 nM gilteritinib, three days) it was 10 to 100 nM; in assay [2] (Homo sapiens, MOLM-13, 72 h, read-out: MOLM-13 IC50 (nM)) it was 100 to 1000 nM; in assay [2] (read-out: MOLM-13 IC50 (nM) + 10 nM Gil, MOLM-13 cells, with gilteritinib, three days), 10 to 100 nM.

`Cc1nn([C@H]2C[C@H](CNc3ccc4c(c3)C(=O)N(C3CCC(=O)NC3=O)C4=O)C2)c2ccccc12` (stereo partly drawn) [GS-689, 2-(2,6-Dioxopiperidin-3-yl)-5-(((trans-3-(3-methyl-1H-indazol-1-yl)cyclobutyl)methyl)amino)isoindoline-1,3-dione]: the pIC50 in assay [1] (setting [3]) is 7.00 to 8.00; in assay [2] (setting [5]), 6.00 to 7.00. Besides, the IC50 in assay [1] (setting [4]) and in assay [2] (setting [6]) was 10 to 100 nM in each case.

In the case of `COc1ccnc2c1c(C1CC1)nn2[C@H]1C[C@H](CNc2ccc3c(c2)C(=O)N(C2CCC(=O)NC2=O)C3=O)C1` (stereo partly drawn) [GS-681, 5-(((Trans-3-(3-cyclopropyl-4-methoxy-1H-pyrazolo[3,4-b]pyridin-1-yl)cyclobutyl)methyl)amino)-2-(2,6-dioxopiperidin-3-yl)isoindoline-1,3-dione], the pIC50 in assay [1] (setting [3]) and in assay [2] (setting [5]) was less than 6.00 in each case. Moreover, the figures for the IC50 in assay [1] (setting [4]) and in assay [2] (setting [6]) were 100 to 1000 nM and 10 to 100 nM, respectively.
